Laboratory results from ChEMBL document CHEMBL1141233, “3-(5-Chloro-2,4-dihydroxyphenyl)-pyrazole-4-carboxamides as inhibitors of the Hsp90 molecular chaperone” (Bioorg Med Chem Lett, 2005).

Key:
HCT-116 = experiment: Inhibition of cell proliferation in HCT116 human colon cancer cell line; type: functional
Heat shock protein HSP90 = Heat shock protein HSP90 (Homo sapiens, UniProt P07900+P08238); experiment: Binding affinity to Hsp90 by fluorescent polarization assay; type: protein assay

Q: How did the GI50 (HCT-116) turn out when `NS(=O)(=O)c1ccc(CNC(=O)c2cn[nH]c2-c2cc(Cl)c(O)cc2O)cc1` was run?
A: The GI50 was over 80 µM.

Q: With `O=C(Nc1ccccc1)c1cn[nH]c1-c1cc(Cl)c(O)cc1O` as the compound, how does the IC50 (Heat shock protein HSP90) read?
A: The IC50 was 7.1 µM.

Q: `O=C(NCc1ccccc1)c1cn[nH]c1-c1cc(Cl)c(O)cc1O` was tested. Which IC50 (Heat shock protein HSP90) did it give?
A: The IC50 was 12.8 µM.

Q: What about the GI50 (HCT-116) of the same compound?
A: The GI50 was over 80 µM.

Q: With `COc1cccc(CNC(=O)c2c[nH]nc2-c2cc(Cl)c(O)cc2O)c1` as the compound, how does the IC50 (Heat shock protein HSP90) read?
A: The IC50 was 10.7 µM.

Q: What about the GI50 (HCT-116) of the same compound?
A: The GI50 was over 80 µM.

Q: What does the source list for `O=C(Nc1ccc(O)cc1)c1c[nH]nc1-c1cc(Cl)c(O)cc1O`?
A: IC50 (Heat shock protein HSP90): 14.7 µM; GI50 (HCT-116): > 80 µM

Q: How did the GI50 (HCT-116) turn out when `CC(=O)c1ccc(NC(=O)c2cn[nH]c2-c2cc(Cl)c(O)cc2O)cc1` was run?
A: Its GI50 is 11.6 µM.

Q: What does the source list for `COc1cccc(NC(=O)c2c[nH]nc2-c2cc(Cl)c(O)cc2O)c1`?
A: IC50 (Heat shock protein HSP90): 11.7 µM; GI50 (HCT-116): > 80 µM

Q: Which results are given for `COc1ccc(NC(=O)c2c[nH]nc2-c2cc(Cl)c(O)cc2O)cc1`?
A: IC50 (Heat shock protein HSP90): 6 µM; GI50 (HCT-116): > 80 µM

Q: Which results are given for `O=C(NCc1ccc(F)cc1)c1cn[nH]c1-c1cc(Cl)c(O)cc1O`?
A: IC50 (Heat shock protein HSP90): 5.35 µM; GI50 (HCT-116): 56.2 µM

Q: For `COc1ccc(CNC(=O)c2c[nH]nc2-c2cc(Cl)c(O)cc2O)cc1`, which IC50 (Heat shock protein HSP90) is on record?
A: Its IC50 is 6 µM.

Q: And the GI50 (HCT-116)?
A: Its GI50 is 60.7 µM.

Q: How did the IC50 (Heat shock protein HSP90) turn out when `O=C(NCc1ccco1)c1cn[nH]c1-c1cc(Cl)c(O)cc1O` was run?
A: The IC50 was 35.6 µM.

Q: How did the IC50 (Heat shock protein HSP90) turn out when `CC(=O)Nc1ccc(NC(=O)c2c[nH]nc2-c2cc(Cl)c(O)cc2O)cc1` was run?
A: Its IC50 is 31.5 µM.

Q: What about the GI50 (HCT-116) of the same compound?
A: The GI50 was 59.7 µM.

Q: `O=C(Nc1ccccn1)c1cn[nH]c1-c1cc(Cl)c(O)cc1O` was tested. Which IC50 (Heat shock protein HSP90) did it give?
A: Its IC50 is over 50 µM.

Q: How did the IC50 (Heat shock protein HSP90) turn out when `O=C(Nc1ccc(Cl)cc1)c1cn[nH]c1-c1cc(Cl)c(O)cc1O` was run?
A: Its IC50 is 6.9 µM.

Q: What about the GI50 (HCT-116) of the same compound?
A: Its GI50 is over 80 µM.

Q: For `O=C(NCc1cccc(C(F)(F)F)c1)c1cn[nH]c1-c1cc(Cl)c(O)cc1O`, which IC50 (Heat shock protein HSP90) is on record?
A: Its IC50 is 5.4 µM.

Q: And the GI50 (HCT-116)?
A: The GI50 was 45 µM.

Q: For `COc1ccc(N(C)C(=O)c2c[nH]nc2-c2cc(Cl)c(O)cc2O)cc1`, which IC50 (Heat shock protein HSP90) is on record?
A: Its IC50 is over 50 µM.
